Among the data in patent US4751302A, “Indazole derivatives” (priority 1982, dated 1988) are LD50 and inhibition in vivo values, retold here.

Each structure is given as a SMILES string.

Data set [1] can be described thus: in vivo. The following applies: mouse, ip, intraperitoneal, hydrochloride, male ddy mice.
For data set [2], the system named is Carrageenin edema in rat's paw. The data set is described as follows: Carrageenin Edema Test in Rat's Paw (anti-inflammatory activity, Table 1). In kind it is in vivo. Conditions: 100 mg/kg oral, hydrochloride, rat. On the procedure:
An anti-inflammatory activity was measured by orally administering 100 mg/kg of a hydrochloride of the indazole derivative of this invention as set forth in Table 1 to an animal in accordance with the standard method of Carrageenin Edema Test in Rat's Paw described in C. A. Winter et al., Proc. Soc. Exp. Biol. Med., 111, 544 (1962).
Background: In the carrageenan paw model, swelling and tenderness develop within hours.

What is called LD50 is the dose at which mortality reaches 50%. The term inhibition in vivo denotes the share of the control response that was lost under treatment. Read a low inhibition in vivo as a weak effect. Turning to `CC(C)CC(CCNc1nn(CCC(C)N2CCCCC2)c2ccc(Cl)cc12)N1CCCCC1` (stereo not shown) [(106), 1-(3-Piperidinobutyl)-3-(3-piperidino-5-methylhexylamino)-5-chloroindazole], the median lethal dose (LD50) in data set [1] is 228 mg/kg. Also, testing at 100 mg/kg in data set [2] gave an inhibition in vivo of 22%.
The compound `CC1CCCC(C)N1CCCNc1nn(CCCN2CCOCC2)c2ccc(Cl)cc12` (stereo not shown) [(116), 1-(3-Morpholinopropyl)-3-[3-(2,6-dimethylpiperidino)propylamino]-5-chloroindazole] gave a 50% lethal dose (LD50) in data set [1] of 311 mg/kg. At 100 mg/kg the inhibition in vivo in data set [2] was 33%.
In the case of `CC(CCn1nc(NCCC(C)N2CCCCC2)c2cc(Cl)ccc21)N(C)C` (stereo not shown) [(110), 1-(3-Dimethylaminobutyl)-3-(3-piperidinobutylamino)-5-chloroindazole], the 50% lethal dose (LD50) in data set [1] is 293 mg/kg. Further, testing at 100 mg/kg in data set [2] gave an inhibition in vivo of 28%.
Take `CCN(CC)C(CCNc1n[nH]c2ccc(O)cc12)CC(C)C` (stereo not shown) [(76), 3-(3-Diethylamino-5-methylhexylamino)-5-hydroxyindazole]: the median lethal dose (LD50) in data set [1] came out at 146 mg/kg. Besides, in data set [2], the inhibition in vivo at 100 mg/kg worked out at 46%.
The matching figures for `CC(CCn1nc(NCCCN2CCCCC2)c2cc(O)ccc21)N1CCCCC1` (stereo not shown) [(135), 1-(3-Piperidinobutyl)-3-(3-piperidinopropylamino)-5-hydroxyindazole]: 298 mg/kg and 28%.
`Oc1ccc2c(c1)c(NCCCN1CCC(Cl)CC1)nn2CCCN1CCOCC1` [(147), 1-(3-Morpholinopropyl)-3-[3-(4-chloropiperidino)propylamino]-5-hydroxyindazole] gave a 50% lethal dose (LD50) in data set [1] of 181 mg/kg. In data set [2], this compound displayed an inhibition in vivo at 100 mg/kg of 29%.
The compound `Nc1nn(CCCN2CCC(Cl)CC2)c2ccc(O)cc12` [(40), 1-[3-(4-Chloropiperidino)propyl]-3-amino-5-hydroxyindazole] gave a 50% lethal dose (LD50) in data set [1] of 335 mg/kg. In data set [2], this compound showed an inhibition in vivo at 100 mg/kg of 64%.
`CC(C)CC(CCn1nc(N)c2cc(Cl)ccc21)N1CCCCC1` (stereo not shown) [(14), 1-(3-Piperidino-5-methylhexyl)-3-amino-5-chloroindazole] gave a median lethal dose (LD50) in data set [1] of 301 mg/kg. The compound further yielded an inhibition in vivo at 100 mg/kg in data set [2] of 34%.
In the case of `Nc1nn(CCCN2CCCCC2)c2ccc(O)cc12` [(33), 1-(3-Piperidinopropyl)-3-amino-5-hydroxyindazole], the LD50 in data set [1] was 227 mg/kg. In data set [2], the inhibition in vivo at 100 mg/kg was 52%.
The matching figures for `CCN(CC)CCCNc1n[nH]c2c(O)cccc12` [(70), 3-(3-Diethylaminopropylamino)-7-hydroxyindazole]: 156 mg/kg and 56%.
Compound `CC(CCn1nc(N)c2cc(Cl)ccc21)N1CCCCC1` (stereo not shown) [(13), 1-(3-Piperidinobutyl)-3-amino-5-chloroindazole] gave an LD50 in data set [1] of 310 mg/kg. Further, in data set [2], at 100 mg/kg the inhibition in vivo was 49%.
As to `Nc1nn(CCCN2CCCCCC2)c2ccc(Cl)cc12` [(19), 1-(3-Homopiperidinopropyl)-3-amino-5-chloroindazole], the LD50 in data set [1] worked out at 251 mg/kg. Also, the inhibition in vivo at 100 mg/kg in data set [2] was 38%.
`Oc1ccc2[nH]nc(NCCCN3CCC(Cl)CC3)c2c1` [(84), 3-[3-(4-Chloropiperidino)propylamino]-5-hydroxyindazole] showed an LD50 in data set [1] of 163 mg/kg. This compound also yielded an inhibition in vivo at 100 mg/kg in data set [2] of 63%.
In data set [1], `CCN(CC)CCCn1nc(N)c2cc(C)ccc21` [(7), 1-(3-Diethylaminopropyl)-3-amino-5-methylindazole] registered an LD50 of 221 mg/kg. In data set [2], this compound showed an inhibition in vivo at 100 mg/kg of 58%.
Compound `CCN(CC)CCCNc1nn(CCCN(CC)CC)c2c(I)cccc12` [(124), 1-(3-Diethylaminopropyl)-3-(3-diethylaminopropylamino)-7-iodoindazole] gave a median lethal dose (LD50) in data set [1] of 313 mg/kg. The inhibition in vivo at 100 mg/kg in data set [2] worked out at 29%.
The matching figures for `CC1CCCC(C)N1CCCNc1n[nH]c2ccc(O)cc12` (stereo not shown) [(82), 3-[3-(2,6-Dimethylpiperidino)propylamino]-5-hydroxyindazole]: 230 mg/kg and 30%.
For the compound `CCN(CC)CCCNc1nn(CCCN(CC)CC)c2ccc(I)cc12` [(123), 1-(3-Diethylaminopropyl)-3-(3-diethylaminopropylamino)-5-iodoindazole], the LD50 in data set [1] turned out to be 291 mg/kg. For the same compound, 100 mg/kg produced 27% inhibition in vivo in data set [2].
`CCN(CC)CCCn1nc(N)c2cccc(Cl)c21` [(4), 1-(3-Diethylaminopropyl)-3-amino-7-chloroindazole] came in with a 50% lethal dose (LD50) in data set [1] of 273 mg/kg. Also, the inhibition in vivo at 100 mg/kg in data set [2] turned out to be 59%.
With `c1ccc2c(NCCN3CCOCC3)n[nH]c2c1` [(154), 3-(2-Morpholinoethylamino)indazole], the LD50 in data set [1] was 351 mg/kg. In data set [2], this compound registered an inhibition in vivo at 100 mg/kg of 50%.
In the same order, the values of `Nc1nn(CCCN2CCC(O)CC2)c2ccc(Cl)cc12` [(17), 1-[3-(4-Hydroxypiperidino)propyl]-3-amino-5-chloroindazole] are 251 mg/kg and 37%.
As to `c1ccc2c(c1)c(NCCCN1CCOCC1)nn2CCCN1CCCCC1` [(160), 1-(3-Piperidinopropyl)-3-(3-morpholinopropylamino)indazole], the LD50 in data set [1] came out at 244 mg/kg. The compound also yielded an inhibition in vivo at 100 mg/kg in data set [2] of 39%.
In data set [1], `CCN(CC)C(CCn1nc(N)c2cc(O)ccc21)CC(C)C` (stereo not shown) [(32), 1-(3-Diethylamino-5-methylhexyl)-3-amino-5-hydroxyindazole] had an LD50 of 251 mg/kg. Testing at 100 mg/kg in data set [2] gave an inhibition in vivo of 47%.
Consider `Oc1ccc2c(c1)c(NCCCCCCN1CCCCC1)nn2CCCN1CCCCC1` [(132), 1-(3-Piperidinopropyl)-3-(6-piperidinohexylamino)-5-hydroxyindazole], for which the 50% lethal dose (LD50) in data set [1] is 310 mg/kg. In addition, at 100 mg/kg the inhibition in vivo in data set [2] was 21%.
Take `CCN(CC)CCCNc1nn(CCC(C)N2CCCCC2)c2ccc(Cl)cc12` (stereo not shown) [(104), 1-(3-Piperidinobutyl)-3-(3-diethylaminopropylamino)-5-chloroindazole]: the LD50 in data set [1] was 277 mg/kg. In data set [2], this compound came in with an inhibition in vivo at 100 mg/kg of 30%.
In data set [1], `CN1CCN(CCCn2nc(N)c3cc(Cl)ccc32)CC1` [(20), 1-[3-(4-Methylpiperazino)propyl]-3-amino-5-chloroindazole] returned a median lethal dose (LD50) of 278 mg/kg. The same compound registered an inhibition in vivo at 100 mg/kg in data set [2] of 26%.
`CCN(CC)CCCNc1nn(CCC(C)N(C)C)c2ccc(Cl)cc12` (stereo not shown) [(108), 1-(3-Dimethylaminobutyl)-3-(3-diethylaminopropylamino)-5-chloroindazole] had a median lethal dose (LD50) in data set [1] of 118 mg/kg. This compound also yielded an inhibition in vivo at 100 mg/kg in data set [2] of 30%.
Compound `CCN(CC)CCCNc1nn(CCCN(CC)CC)c2cc(O)ccc12` [(121), 1-(3-Diethylaminopropyl)-3-(3-diethylaminopropylamino)-6-hydroxyindazole] registered a median lethal dose (LD50) in data set [1] of 251 mg/kg. Further, the inhibition in vivo at 100 mg/kg in data set [2] turned out to be 21%.
`CCN(CC)CCCNc1nn(CCCN(CC)CC)c2cccc(Cl)c12` [(89), 1-(3-Diethylaminopropyl)-3-(3-diethylaminopropylamino)-4-chloroindazole] came in with an LD50 in data set [1] of 214 mg/kg. This compound also gave an inhibition in vivo at 100 mg/kg in data set [2] of 30%.
In the same order, the values of `CC1CCCCN1CCCNc1n[nH]c2ccc(O)cc12` (stereo not shown) [(81), 3-[3-(2-Methylpiperidino)propylamino]-5-hydroxyindazole] are 147 mg/kg and 47%.
